Our source for the TGI values is PubChem BioAssay (NCI).

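Protocol summary: plate cells (96-well), add compound at 5 concentrations, incubate 48 h, interpolate endpoints linearly. TGI marks complete inhibition of growth.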 Bounds are passed on as bounds.

Test systems include ACHN renal; HCC-2998 colon; MDA-MB-231 breast; SK-MEL-5 melanoma; BT-549 breast; MDA-N; A498 renal; NCI-H23 lung; SW-620 colon; RPMI-8226 leukemia; K-562 leukemia.
Assay in all cases: inhibition of tumour cell growth, NCI panel, 48 h

`COc1ccc(C2c3cc4c(cc3OC(NNC(N)=O)C2C)OCO4)cc1` (stereo unspecified): the TGI was over 100 µM in the assay with ACHN renal; 35 µM in the assay with HCC-2998 colon; over 100 µM in the assay with MDA-MB-231 breast; over 63.2 µM in the assay on SK-MEL-5 melanoma; over 95.7 µM in the assay with BT-549 breast; 6.86 µM in the assay on MDA-N. Moreover, the TGI is 8.59 µM in the assay with A498 renal; over 86.1 µM with NCI-H23 lung; over 100 µM in the assay on SW-620 colon; 20.2 µM in the assay on RPMI-8226 leukemia; over 34.9 µM in the assay with K-562 leukemia.

As to `COC(=O)C1=C(O)C(C(=O)OC)[C@]2(O)[C@H](C(=O)OC)[C@H]1C[C@@H](c1cccc(OC)c1)[C@H]2C(=O)OC` (stereo partly specified), the TGI in the assay with ACHN renal is 40.4 µM; with HCC-2998 colon it was 42.7 µM; with MDA-MB-231 breast it was 78.3 µM; in the assay on SK-MEL-5 melanoma, over 100 µM; with BT-549 breast, over 100 µM; in the assay with MDA-N it was 64.4 µM. Besides, the TGI is 55.9 µM with A498 renal; over 100 µM in the assay on NCI-H23 lung; over 100 µM in the assay with SW-620 colon; over 100 µM in the assay on RPMI-8226 leukemia; over 100 µM with K-562 leukemia.

On to `CC(=O)OC(CC(C)C)P1(=O)N(CC(C)(C)C)[C@@H]2CCCC[C@H]2N1CC(C)(C)C` (stereo partly specified), for which the TGI in the assay on ACHN renal amounted to 19.3 µM; in the assay with HCC-2998 colon, 18.3 µM; in the assay on MDA-MB-231 breast it was 19.7 µM; with SK-MEL-5 melanoma it was 21.9 µM; in the assay on BT-549 breast, 29.2 µM; in the assay on MDA-N, 21.3 µM. Further, the TGI in the assay on A498 renal amounted to 19.3 µM; in the assay on NCI-H23 lung, 23.1 µM; with SW-620 colon it was 29 µM; in the assay with RPMI-8226 leukemia, 15.3 µM; in the assay with K-562 leukemia it was 23.9 µM.

As for `O=C(CCCC1Cc2ccccc2C1=O)c1ccccc1` (stereo unspecified), the TGI in the assay on ACHN renal, in the assay on HCC-2998 colon, in the assay on MDA-MB-231 breast, with SK-MEL-5 melanoma, with BT-549 breast and with MDA-N was over 100 µM throughout. Also, the TGI in the assay on A498 renal, in the assay with NCI-H23 lung, in the assay with SW-620 colon, in the assay on RPMI-8226 leukemia and in the assay on K-562 leukemia was over 100 µM throughout.

For `CC1(C)C2CCC1(C)C(N/C(=C(/C(Cl)=C(Cl)Cl)[N+](=O)[O-])n1nnc3ccccc31)C2` (stereo unspecified), the TGI was 42.1 µM with ACHN renal; over 100 µM in the assay on HCC-2998 colon; 53.7 µM in the assay on MDA-MB-231 breast; 48.5 µM in the assay on BT-549 breast; over 100 µM in the assay with MDA-N; 37.5 µM in the assay with A498 renal. For the same molecule, the values for the TGI in the assay on NCI-H23 lung, in the assay with SW-620 colon and with RPMI-8226 leukemia were 52.2 µM, over 100 µM and over 100 µM, respectively.

On to `Cc1ccc(S(=O)(=O)N(CC(O)c2ccccc2)c2ccccc2F)cc1` (stereo unspecified), for which the TGI was 40.1 µM with ACHN renal; 53.2 µM in the assay on HCC-2998 colon; 36.6 µM in the assay with MDA-MB-231 breast; 29.6 µM in the assay on SK-MEL-5 melanoma; 32 µM with BT-549 breast; 33.8 µM in the assay on MDA-N. Further, the TGI came out at 36 µM in the assay on A498 renal; 36.9 µM in the assay on NCI-H23 lung; 39.9 µM with SW-620 colon; 39 µM in the assay on RPMI-8226 leukemia; 44.5 µM in the assay with K-562 leukemia.

For the molecule `CC(C)=CCC/C(=C\CC/C(=C\CCc1ccoc1)C(=O)O)C(=O)O`, the TGI with ACHN renal, in the assay on HCC-2998 colon, in the assay with MDA-MB-231 breast, in the assay with SK-MEL-5 melanoma, with BT-549 breast and in the assay with MDA-N was over 100 µM in each case. In addition, the TGI in the assay on A498 renal, in the assay on NCI-H23 lung, in the assay with SW-620 colon, in the assay on RPMI-8226 leukemia and with K-562 leukemia was over 100 µM in each case.

With `CC1(CCc2ccccc2)CC1(Br)Br` (stereo unspecified), the TGI is 61 µM in the assay on ACHN renal; 76.2 µM in the assay with HCC-2998 colon; over 100 µM in the assay with MDA-MB-231 breast; 30.1 µM in the assay with SK-MEL-5 melanoma; over 100 µM in the assay on BT-549 breast; over 100 µM in the assay on MDA-N. Moreover, the TGI is over 100 µM in the assay with A498 renal; over 100 µM in the assay with NCI-H23 lung; over 100 µM with SW-620 colon; 44.8 µM in the assay on RPMI-8226 leukemia; 38.2 µM in the assay on K-562 leukemia.

As to `C/C=C1/CN2[C@@H](C3=C[C@@H]4[C@@H]5N(C3=O)c3ccccc3[C@@]53CCN5C/C(=C/C)[C@@H]4C[C@H]53)C[C@@]34c5ccccc5N5C(=O)CC=C([C@H]1C[C@H]23)[C@H]54`, the TGI in the assay with ACHN renal was 12.1 µM; in the assay on HCC-2998 colon, 8.75 µM; in the assay with MDA-MB-231 breast, 9.19 µM; in the assay on SK-MEL-5 melanoma, 8.93 µM; with BT-549 breast it was 15.7 µM; in the assay with MDA-N, 10.4 µM. For the same molecule, the TGI is 14.5 µM in the assay on A498 renal, 14.3 µM in the assay with NCI-H23 lung, 10.4 µM in the assay with SW-620 colon and 50 µM in the assay with K-562 leukemia.

In the case of `O=c1[nH]c(=S)c2cc3c(=S)[nH]c(=O)n(CCC(c4ccccc4)(c4ccccc4)c4ccccc4)c3nc2n1CCC(c1ccccc1)(c1ccccc1)c1ccccc1`, the TGI with ACHN renal, in the assay with HCC-2998 colon, with MDA-MB-231 breast, with SK-MEL-5 melanoma, in the assay with BT-549 breast and in the assay on MDA-N was over 100 µM each time. Moreover, the TGI in the assay with A498 renal, in the assay on NCI-H23 lung, in the assay on RPMI-8226 leukemia and in the assay on K-562 leukemia was over 100 µM in each case.

With `CC(C)=CC(C)C(C(O)CCC1(c2ccoc2)OCCO1)S(=O)(=O)c1ccccc1` (stereo unspecified), the TGI with ACHN renal, in the assay on HCC-2998 colon, with MDA-MB-231 breast, in the assay with SK-MEL-5 melanoma, in the assay with BT-549 breast and with MDA-N was over 100 µM throughout. The TGI with A498 renal, in the assay with NCI-H23 lung, with SW-620 colon and in the assay on RPMI-8226 leukemia was over 100 µM in each case.

`Cc1c(C)c2c(c(N)c1C#N)C(=O)N(OS(=O)(=O)c1ccccc1)C2=O`: the TGI in the assay on ACHN renal was 33.1 µM; in the assay on HCC-2998 colon it was over 100 µM; with MDA-MB-231 breast, over 100 µM; with SK-MEL-5 melanoma it was over 100 µM; with BT-549 breast, 39.7 µM; in the assay with MDA-N, 80.8 µM. Further, the TGI in the assay with A498 renal was over 100 µM; with SW-620 colon it was 47.2 µM; in the assay on RPMI-8226 leukemia, 37.8 µM; with K-562 leukemia it was 43.4 µM.

With `CCOC(=O)c1[nH]cnc1/N=N/N(C)N`, the TGI in the assay on ACHN renal, in the assay with HCC-2998 colon, in the assay with MDA-MB-231 breast, with SK-MEL-5 melanoma, with BT-549 breast and with MDA-N was over 100 µM in each case. For the same molecule, the TGI in the assay on A498 renal, in the assay on NCI-H23 lung, in the assay on SW-620 colon and with RPMI-8226 leukemia was over 100 µM each time.
